Assay results published in US6818219B1, “Reagent for detecting and monitoring viral infections” (Institut Pasteur de Lille, priority 1997, dated 2004).

Test system: anti-VCAp18 antibodies of EBV-positive sera
Test: Measurement of the binding affinity to the antibody (method of FRIGUET, ELISA inhibition by soluble VCAp18/SEQ ID No. 2)
Design: species or system human
Conditions: increasing concentrations of soluble peptide
Experimental: The specificity of the binding of the positive sera to the different mixotopes in solid phase is evaluated by the absorption of the antibodies by the native antigen VCAp18/SEQ ID No. 2 in solution, using the method of B. FRIGUET et al. (J. Immunol. Methods, 1985, 77, 305-319).
This method is based on the measurement of the free antibody concentration by an indirect ELISA method when the antigen VCAp18/SEQ ID No. 2 and the antibodies are in equilibrium in solution.
The antigen VCAp18/SEQ ID No. 2, at different concentrations (10^−10 M to 2×10^−6 M), is first incubated in solution (PBS-T buffer+2% BSA) with an EBV-positive serum, at a constant concentration (1/50) until the equilibrium state is reached. […]
After washing with PBS-T buffer, the bound immunoglobulins are detected by addition of peroxidase-coupled goat antibodies anti-human IgG-A-Ms.
This method gives the displacement curves for the A/Ao bond relative to log(ao). A precise estimation of the mean affinity of the serum containing the anti-VCAp18 antibodies is given by the equation Ao/(Ao−A)=1/ν=1+Kd/ao, in which ao is the total soluble antigen concentration, A and Ao are the absorbance values at 492 nm with or without blocking antigen, respectively, and ν is the bound antibody fraction, if the different conditions set out in FRIGUET et al. are satisfied.

Sequence: CAVDTGSGGGGQPHDTAPRGARKKQ [VCAp18/SEQ ID No. 2]
- inhibition of the binding of the human sera to the 3 mixotopes in solid phase: specifically and strongly inhibited
